Results on eight compounds are retold here after PMC9229255, “New Cladiellin-Type Diterpenoids from the South China Sea Soft Coral Cladiella krempfi: Structures and Molecular Docking Analysis in EGFRs” (Marine Drugs, 2022).

The target in data set [1] is T1, EGFR (Homo sapiens, UniProt P00533). The experiment in a line: EGFR activity assay (kinase inhibition). Format: biochemical. The following applies: concentration 20000 nM; read-out: EGFR inhibitory data, Mean (percentage of inhibition). The protocol: Six compounds were screened on EGFRs using staurosporine obtained from MedChemExpress (Cat. No. HY-15141; Lot. No. 41248) as the reference compound. In the bioassay for the EGFRs, testing kinases were performed in 1× kinase base buffer containing 50 mM HEPES (pH 7.5) and 0.0015% Brij-35, and stop buffer containing 100 mM HEPES (pH 7.5), 0.0015% Brij-35, 0.2% Coating Reagent #3, and 50 mM EDTA. For the compound preparing part, compounds were diluted to 50X of the final desired highest inhibitor concentration in the reaction by 100% DMSO, and 100 µL of the compound dilution was transferred to a well in a 96-well plate. Additionally, 100 µL of 100% DMSO was added to two empty wells for a no-compound control and a no-enzyme control in the same 96-well plate, which was marked as the source plate. […]. The compounds were mixed in an intermediate plate for 10 min on a shaker. For the assay plate, 5 µL of each well from the 96-well intermediate plate was transferred to a 384-well plate in duplicates. For the kinase reaction, 2.5× enzyme solution and 2.5× peptide solution were prepared. Moreover, 5 µL of compound were settled in the assay plate with 10% DMSO. Additionally, 10 µL of 2.5× enzyme solution was added to each well of the 384-well assay plate that was incubated at room temperature for 10 min. Then, 10 µL of 2.5× peptide solution was added to each well of the 384-well that was incubated at 28 °C for 30 min and stopped by 25 µL stop buffer. The percentage of inhibition was estimated using max-conversion divided by the max-min, and inhibition values were converted by convert conversion values from the caliper program. IC50 values were obtained from fitting the data in the XLfit excel add-in version 4.3.1.
T1 sequence (P00533 25-1210): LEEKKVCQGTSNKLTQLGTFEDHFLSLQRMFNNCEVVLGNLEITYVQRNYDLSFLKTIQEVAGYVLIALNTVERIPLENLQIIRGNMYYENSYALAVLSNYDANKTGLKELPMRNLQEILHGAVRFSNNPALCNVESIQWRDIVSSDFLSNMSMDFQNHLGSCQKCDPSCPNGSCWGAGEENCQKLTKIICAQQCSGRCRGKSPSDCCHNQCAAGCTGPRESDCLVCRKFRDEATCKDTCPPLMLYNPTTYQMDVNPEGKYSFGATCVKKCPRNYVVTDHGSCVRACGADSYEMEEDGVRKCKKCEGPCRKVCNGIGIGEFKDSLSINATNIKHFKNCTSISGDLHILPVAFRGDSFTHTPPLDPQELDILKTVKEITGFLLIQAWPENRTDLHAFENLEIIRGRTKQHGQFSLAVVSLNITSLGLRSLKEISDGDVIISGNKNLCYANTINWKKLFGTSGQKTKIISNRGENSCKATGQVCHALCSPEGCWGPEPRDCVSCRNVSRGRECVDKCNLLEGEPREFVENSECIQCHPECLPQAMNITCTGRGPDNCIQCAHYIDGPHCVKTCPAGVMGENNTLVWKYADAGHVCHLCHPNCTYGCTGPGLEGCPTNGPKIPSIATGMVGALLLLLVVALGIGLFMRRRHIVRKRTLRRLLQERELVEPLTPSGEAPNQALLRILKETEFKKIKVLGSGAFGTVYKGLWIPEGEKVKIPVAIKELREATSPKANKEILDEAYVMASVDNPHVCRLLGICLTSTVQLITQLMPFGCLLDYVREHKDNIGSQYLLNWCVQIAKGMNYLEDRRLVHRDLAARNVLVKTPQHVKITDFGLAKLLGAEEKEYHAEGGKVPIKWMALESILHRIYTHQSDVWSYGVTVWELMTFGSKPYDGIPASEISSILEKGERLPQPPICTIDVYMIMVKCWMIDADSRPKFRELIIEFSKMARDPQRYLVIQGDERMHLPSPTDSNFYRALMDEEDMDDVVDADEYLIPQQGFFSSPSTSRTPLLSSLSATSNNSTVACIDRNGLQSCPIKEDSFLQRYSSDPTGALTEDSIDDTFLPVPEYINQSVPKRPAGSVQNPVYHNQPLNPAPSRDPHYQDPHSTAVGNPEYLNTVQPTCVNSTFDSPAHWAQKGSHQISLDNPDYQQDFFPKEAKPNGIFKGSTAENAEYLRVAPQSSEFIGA

Data set [2] deals with T1, EGFR. More on the design: method as in PMID 27940262. The conditions noted are these: read-out: EGFR inhibitory activity IC50; cited from earlier work.
Data set [3] concerns mouse lymphocytic leukemia L1210 cells. Set-up: method as in doi:10.1021/jo00269a027. The following applies: as low as; cited from earlier work.

Regarding `C=C1C(O)CCC(C)(OC(=O)CCC)C2OC(C1OC(C)=O)C1C(=C)C(O)CC(C(C)C)C12` (stereo not drawn) [Compound 1, litophynol C], the melting point – broadly, the temperature of the solid-liquid transition – is 183 to 184 °C. At EGFR [1], the inhibition – broadly, the drop in the measured response relative to a control, in per cent – at 20 µM was -9.9%.
On to `C=C1C(OO)CCC(C)(OC(=O)CCC)C2OC(C1OC(C)=O)C1C(=C)C(O)CC(C(C)C)C12` (stereo not drawn) [Compound 2, litophynol D], for which, at EGFR [1], the inhibition at 20 µM was -12.5%.
On to `C=C1CC[C@H](C(C)C)[C@@H]2[C@H]1[C@@H]1O[C@H]2[C@](C)(OC(=O)CCC)CC[C@H](O)C(=C)[C@H]1O` [Compound 3, litophynol A], for which the inhibition at 20 µM at EGFR [1] is -3.8%.
As for `C=C1CC[C@H](C(C)C)[C@@H]2[C@H]1[C@@H]1O[C@H]2[C@](C)(OC(=O)CCC)CC[C@H](O)C(=C)[C@H]1OC(=O)CCC` [Compound 4, 8-butyryl-litophynol A], the inhibition at 20 µM on EGFR [1] is -3.4%.
Turning to `C=C1CC[C@H](C(C)C)[C@@H]2[C@H]1[C@@H]1O[C@H]2[C@](C)(OC(=O)CCC)CC[C@H](OC)[C@@](C)(O)[C@H]1O` [Compound 5, kremfielin B], the inhibition at 20 µM on EGFR [1] was -7.5%.
`C=C1CC[C@H](C(C)C)[C@@H]2[C@H]1[C@H]1C[C@](C)(O)[C@@H](O)CC[C@@](C)(OC(=O)CCC)[C@@H]2O1` [Compound 6, litophynin E]: the inhibition at 20 µM at EGFR [1] is -4.9%.
Consider `CCCC(=O)O[C@]1(C)CC[C@H](C(C)C)[C@@H]2[C@H]1[C@H]1C[C@](C)(O)[C@@H](O)CC[C@@](C)(OC(C)=O)[C@@H]2O1` [pachycladin A], for which the IC50 (commonly the point on the concentration scale where inhibition reaches its midpoint) at EGFR [2] was 500 nM.
Regarding `C=C1CC[C@H](C(C)C)[C@@H]2[C@H]1[C@H]1C[C@](C)(O)[C@@H](O)CC[C@@](C)(O)[C@@H]2O1` [sclerophytin A], the “concentration showing significant cytotoxicity” value in data set [3] is recorded as 1 ng/mL.
